The values that follow come from ChEMBL document CHEMBL1201862, “PubChem BioAssay data set” (2004).

As a reminder, the EC50 is the concentration needed to bring the measured effect to its halfway point.

The source made the active and inactive calls.

For one assay, the target named is T1, Bcl-2-related protein A1 (Mus musculus, UniProt Q07440).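 Note: confirmatory dose–response counterscreen on Bfl-1, used to check hits from a UBC13 polyubiquitin inhibitor campaign.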
T1 sequence (Q07440 whole entry): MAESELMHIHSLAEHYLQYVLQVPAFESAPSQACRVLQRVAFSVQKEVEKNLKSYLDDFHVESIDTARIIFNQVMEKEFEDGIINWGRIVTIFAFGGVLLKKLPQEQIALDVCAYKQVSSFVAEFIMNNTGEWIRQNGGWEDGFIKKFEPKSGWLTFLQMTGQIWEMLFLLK
In kind it is functional.

Assay [1] has as its target Intestinal-type alkaline phosphatase (Mus musculus, UniProt P24822). In words: PubChem AID 488785. In kind it is functional.
Assay [2] addresses T2, Ubiquitin-conjugating enzyme E2 N (Homo sapiens, UniProt P61088).
T2 sequence (P61088 whole entry): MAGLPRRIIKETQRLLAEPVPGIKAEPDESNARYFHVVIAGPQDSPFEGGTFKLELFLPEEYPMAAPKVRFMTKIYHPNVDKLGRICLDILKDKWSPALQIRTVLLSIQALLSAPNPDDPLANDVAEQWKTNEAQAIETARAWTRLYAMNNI
It counts as functional.

The target in assay [3] is T3, Alkaline phosphatase, tissue-nonspecific isozyme (Homo sapiens, UniProt P05186).
T3 sequence (P05186 whole entry): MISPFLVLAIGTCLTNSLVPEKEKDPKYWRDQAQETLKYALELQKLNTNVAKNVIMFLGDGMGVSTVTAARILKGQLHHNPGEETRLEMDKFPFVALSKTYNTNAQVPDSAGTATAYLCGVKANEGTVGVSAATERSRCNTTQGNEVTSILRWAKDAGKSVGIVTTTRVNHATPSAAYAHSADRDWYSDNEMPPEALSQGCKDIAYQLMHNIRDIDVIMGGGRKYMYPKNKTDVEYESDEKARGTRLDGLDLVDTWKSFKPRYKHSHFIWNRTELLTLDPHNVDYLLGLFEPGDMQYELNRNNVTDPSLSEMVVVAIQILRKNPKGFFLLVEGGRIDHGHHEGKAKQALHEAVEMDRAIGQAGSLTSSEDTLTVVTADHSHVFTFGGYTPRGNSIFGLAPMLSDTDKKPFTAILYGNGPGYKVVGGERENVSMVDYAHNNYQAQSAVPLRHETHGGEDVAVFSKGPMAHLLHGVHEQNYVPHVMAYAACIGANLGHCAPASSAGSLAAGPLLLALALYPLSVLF
In words: TNAP enzyme inhibition by screening hits, dose response, selectivity assay for mouse IAP inhibitor project, biochemical, human TNAP, uHTS hits (AID 488906). In kind it is functional.

Assay [4] concerns the target Intestinal-type alkaline phosphatase (Homo sapiens, UniProt P09923). Briefly: inhibition of human intestinal alkaline phosphatase – biochemical, dose response (AID 488876). It counts as functional.
In assay [5] the target is T4, Insulin-degrading enzyme (Homo sapiens, UniProt P14735).
T4 sequence (P14735 whole entry): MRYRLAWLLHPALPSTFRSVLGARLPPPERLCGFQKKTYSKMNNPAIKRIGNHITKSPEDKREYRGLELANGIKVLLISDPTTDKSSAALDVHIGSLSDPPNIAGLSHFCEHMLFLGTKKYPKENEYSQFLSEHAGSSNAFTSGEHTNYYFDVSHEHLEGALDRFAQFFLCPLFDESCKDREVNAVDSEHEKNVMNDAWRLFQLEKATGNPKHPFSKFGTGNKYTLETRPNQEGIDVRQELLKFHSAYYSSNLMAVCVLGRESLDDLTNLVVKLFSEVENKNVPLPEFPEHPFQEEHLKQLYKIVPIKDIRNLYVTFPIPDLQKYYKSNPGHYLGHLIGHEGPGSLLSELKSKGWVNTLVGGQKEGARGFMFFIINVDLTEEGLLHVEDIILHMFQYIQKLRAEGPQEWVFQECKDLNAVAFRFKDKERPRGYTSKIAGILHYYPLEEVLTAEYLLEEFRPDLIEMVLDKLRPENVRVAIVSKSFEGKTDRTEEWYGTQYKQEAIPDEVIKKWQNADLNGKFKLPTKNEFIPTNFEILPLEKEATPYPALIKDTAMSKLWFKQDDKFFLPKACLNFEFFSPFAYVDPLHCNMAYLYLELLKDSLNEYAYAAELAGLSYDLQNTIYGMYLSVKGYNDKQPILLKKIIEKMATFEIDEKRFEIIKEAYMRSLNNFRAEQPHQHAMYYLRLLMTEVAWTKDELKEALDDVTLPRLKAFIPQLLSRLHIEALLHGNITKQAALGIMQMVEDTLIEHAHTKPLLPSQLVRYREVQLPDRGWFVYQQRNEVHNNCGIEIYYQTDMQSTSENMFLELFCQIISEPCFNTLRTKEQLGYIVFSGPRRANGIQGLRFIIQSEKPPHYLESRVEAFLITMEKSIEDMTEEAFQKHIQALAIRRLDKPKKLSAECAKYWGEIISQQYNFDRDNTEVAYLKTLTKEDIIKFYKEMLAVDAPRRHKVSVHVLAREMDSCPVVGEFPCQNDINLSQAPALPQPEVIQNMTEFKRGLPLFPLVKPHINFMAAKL
In words: activators of recombinant IDE enzyme, dose response, counter-screen for IDE activator project, biochemical, fluorescence polarization (AID 588681). (The purpose of a counterscreen is to sort out artefacts and off-target activity.)

Assay [6] addresses T4, Insulin-degrading enzyme. Briefly: activators of endogenous IDE in HEK cells, dose response, cell-based, fluorescence polarization (AID 588439). In kind it is functional. In general terms: In fluorescence polarisation assays a small probe gives low polarisation when free and higher when bound to something large.
Assay [7] addresses Delta-type opioid receptor (Homo sapiens, UniProt P41143). In words: Counterscreen for agonists of heterodimerization of the mu 1 (OPRM1) and delta 1 (OPRD1) opioid receptors: Luminescence-based cell-based high throughput dose response assay to identify agonists of OPRD1 homodimerization. [Related pubchem assays (depositor defined):AID504326, AID504355, AID504692, AID504904, AID504905]. It counts as functional.

A further assay concerns the target Mu-type opioid receptor (Homo sapiens, UniProt P35372). In words: Counterscreen for agonists of heterodimerization of the mu 1 (OPRM1) and delta 1 (OPRD1) opioid receptors: Luminescence-based cell-based high throughput dose response assay to identify agonists of OPRM1 homodimerization. In kind it is functional.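 Note: U2OS cells expressing OPRM1 and beta-arrestin as split beta-galactosidase partners.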
The target of assay [8] is 5-hydroxytryptamine receptor 5A (Homo sapiens, UniProt P47898). Briefly: Counterscreen for agonists of OPRM1-OPRD1 heterodimerization: luminescence-based cell-based high throughput dose response assay to identify agonists of 5-hydroxytryptamine (serotonin) 5A receptor (HTR5A). [Related pubchem assays (depositor defined):AID504326, AID504355, AID504692, AID504904, AID504905]. In kind it is functional.
Chain of 5-hydroxytryptamine receptor 5A (P47898 whole entry): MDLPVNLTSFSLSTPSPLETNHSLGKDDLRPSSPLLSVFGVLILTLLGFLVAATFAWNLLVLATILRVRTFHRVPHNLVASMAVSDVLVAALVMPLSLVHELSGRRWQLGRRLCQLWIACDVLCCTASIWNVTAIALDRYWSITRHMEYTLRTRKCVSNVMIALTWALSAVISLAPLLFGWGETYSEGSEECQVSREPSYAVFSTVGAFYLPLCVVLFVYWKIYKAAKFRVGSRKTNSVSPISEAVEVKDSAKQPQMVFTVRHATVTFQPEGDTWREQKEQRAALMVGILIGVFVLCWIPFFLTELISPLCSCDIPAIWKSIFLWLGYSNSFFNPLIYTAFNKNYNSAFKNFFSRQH

Assay [9] deals with T5, Small ubiquitin-related modifier 1 (Homo sapiens, UniProt P63165). Briefly: inhibitors of SUMO1 peptide binding, dose response, biochemical, fluorescence polarization, uHTS hits (AID 624382). In kind it is functional. As to conditions: read-out: IC50_Mean.
T5 sequence (P63165 whole entry): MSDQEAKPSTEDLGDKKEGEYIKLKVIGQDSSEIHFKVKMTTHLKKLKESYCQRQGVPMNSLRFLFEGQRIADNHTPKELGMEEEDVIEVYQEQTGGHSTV
Assay [10] has as its target T5, Small ubiquitin-related modifier 1. In words: inhibitors of SUMO1 partner interactions, dose response, biochemical, FRET (AID 624383). It counts as functional. As to conditions: read-out: IC50_Mean.

Chain of Intestinal-type alkaline phosphatase (Mus musculus, UniProt P24822) (P24822 whole entry): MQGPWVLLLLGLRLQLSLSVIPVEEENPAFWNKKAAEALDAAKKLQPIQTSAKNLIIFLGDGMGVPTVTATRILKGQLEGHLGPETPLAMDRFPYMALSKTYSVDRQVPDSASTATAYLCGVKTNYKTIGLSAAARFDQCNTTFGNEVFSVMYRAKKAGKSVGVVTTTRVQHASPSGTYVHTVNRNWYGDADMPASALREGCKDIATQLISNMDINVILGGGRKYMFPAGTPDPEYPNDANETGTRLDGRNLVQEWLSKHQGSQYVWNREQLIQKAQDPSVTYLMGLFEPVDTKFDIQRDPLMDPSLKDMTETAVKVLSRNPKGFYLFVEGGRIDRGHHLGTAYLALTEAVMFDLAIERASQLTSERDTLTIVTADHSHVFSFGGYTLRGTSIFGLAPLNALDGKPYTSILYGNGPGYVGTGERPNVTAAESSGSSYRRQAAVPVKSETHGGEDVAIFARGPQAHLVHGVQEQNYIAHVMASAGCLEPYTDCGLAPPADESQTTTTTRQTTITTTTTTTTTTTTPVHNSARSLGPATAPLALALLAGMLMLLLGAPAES
Chain of Delta-type opioid receptor (P41143 whole entry): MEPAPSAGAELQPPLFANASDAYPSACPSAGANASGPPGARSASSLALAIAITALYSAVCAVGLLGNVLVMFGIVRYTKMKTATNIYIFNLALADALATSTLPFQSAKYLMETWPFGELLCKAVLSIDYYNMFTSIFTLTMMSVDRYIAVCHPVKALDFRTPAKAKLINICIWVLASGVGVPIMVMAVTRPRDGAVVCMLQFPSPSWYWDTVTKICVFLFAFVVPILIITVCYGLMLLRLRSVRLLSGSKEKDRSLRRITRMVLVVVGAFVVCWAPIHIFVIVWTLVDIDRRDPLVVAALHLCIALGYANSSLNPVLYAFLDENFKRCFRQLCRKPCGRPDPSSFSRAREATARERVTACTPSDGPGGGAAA
Chain of Intestinal-type alkaline phosphatase (Homo sapiens, UniProt P09923) (P09923 whole entry): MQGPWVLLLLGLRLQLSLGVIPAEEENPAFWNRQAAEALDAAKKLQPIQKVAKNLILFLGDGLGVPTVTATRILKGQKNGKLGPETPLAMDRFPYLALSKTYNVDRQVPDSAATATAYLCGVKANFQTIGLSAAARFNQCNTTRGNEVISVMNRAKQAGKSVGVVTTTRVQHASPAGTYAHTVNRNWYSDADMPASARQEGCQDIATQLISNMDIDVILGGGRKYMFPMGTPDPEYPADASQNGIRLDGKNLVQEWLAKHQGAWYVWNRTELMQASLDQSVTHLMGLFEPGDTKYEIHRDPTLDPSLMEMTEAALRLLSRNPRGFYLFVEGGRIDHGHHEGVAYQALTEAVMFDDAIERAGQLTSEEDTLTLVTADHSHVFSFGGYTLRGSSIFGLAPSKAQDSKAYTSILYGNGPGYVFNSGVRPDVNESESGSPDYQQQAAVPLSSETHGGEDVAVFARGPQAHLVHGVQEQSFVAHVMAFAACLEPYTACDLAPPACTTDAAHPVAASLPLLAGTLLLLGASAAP
Chain of Mu-type opioid receptor (P35372 whole entry): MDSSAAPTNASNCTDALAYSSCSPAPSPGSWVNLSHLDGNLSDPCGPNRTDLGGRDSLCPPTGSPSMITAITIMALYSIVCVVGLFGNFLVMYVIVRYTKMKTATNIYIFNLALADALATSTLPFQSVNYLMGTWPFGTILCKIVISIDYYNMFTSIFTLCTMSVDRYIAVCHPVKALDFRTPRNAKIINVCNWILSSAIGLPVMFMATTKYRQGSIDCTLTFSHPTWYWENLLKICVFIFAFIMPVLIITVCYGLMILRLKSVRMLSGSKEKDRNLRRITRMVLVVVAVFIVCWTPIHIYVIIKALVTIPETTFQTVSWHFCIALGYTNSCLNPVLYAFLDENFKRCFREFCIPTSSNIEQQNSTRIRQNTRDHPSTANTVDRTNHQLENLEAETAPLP

For the compound `Clc1ccc(C(c2ccc(Cl)cc2)n2cc[n+](CC(OCc3ccc(Cl)cc3Cl)c3ccc(Cl)cc3Cl)c2)cc1` (configuration not stated) [CALMIDAZOLIUM CHLORIDE], the IC50 at Bcl-2-related protein A1 was 6.23 µM (active); in [1], 14.6 µM (active); in [2], 5.6 µM (active); in assay [3], > 100 µM (inactive); in [4] it was > 100 µM (inactive); in assay [9], > 66.6 µM (inactive). Besides, the IC50 in assay [10] was 5.89 µM (active). Also, the EC50 at Insulin-degrading enzyme [5] is > 54.7 µM (inactive); at Insulin-degrading enzyme [6], > 2.03 µM (active); in assay [7] it was > 92.5 µM (inactive); on Mu-type opioid receptor, > 92.5 µM (inactive); in assay [8], > 92.5 µM (inactive).
